Results on five compounds are retold here after patent US10188758B2, “Organic compounds” (INTRA-CELLULAR THERAPIES, INC., priority 2015, dated 2019).

One assay concerns the target human NET (Homo sapiens (Human), UniProt P23975). The assay can be described thus: Novascreen Norepinephrine, Transporter NET (h) binding, recombinant CHO cells, [3H]-Nisoxetine. From the text: (§1) The NET and SERT binding may be assayed to determine if the compounds of the disclosure specifically bind to NET or SERT. An exemplary procedure for assaying NET binding may be found in Raisman et al., Eur. Jrnl. Pharmacol. (1982) 78:345-351 and in Langer et al., Eur. Jrnl. Pharmac. (1981) 72:423. An exemplary procedure for assaying SERT binding may be found in D'Amato et al., Jrnl. Pharmcacol. & Exp. Ther. (1987) 242:364-371 and in Brown et al., Eur. Jrnl. Pharmac. (1986) 123:161-165. The contents of each of these references are incorporated by reference in their entirety.
(§2) The binding affinity of the compounds of the current disclosure is measured using a Novascreen against rodent NET, human NET and human SERT. Duloxetine is used as a positive control. Details of the Novascreen may be found in the following: • http://www.perkinelmer.com/Catalog/Product/ID/100-0123, • http://www.perkinelmer.com/Catalog/Product/ID/100-0048, • http://www.perkinelmer.com/Catalog/Product/ID/100-0146, and • http://www.perkinelmer.com/Catalog/Product/ID/100-0099.
For the binding affinity of the compounds of the current disclosure against NET, the following paramenters are used: • Assay Type: Binding • Species: Rat • Origin: Forebrain • Ligand: [3H]-Nisoxetine • Ligand [M]: 1.00E-09 • Kd (Binding Affinity): 9.00E-10 • Bmax: 10.5 fmol/mg tissue (wet weight) • Method: Radioactivity • Measurement: DPM • Assay Name: Norepinephrine, Transporter NET (h) • Assay Type: Binding • Species: Human • Origin: Recombinant/CHO cells • Ligand: [3H]-Nisoxetine • Ligand [M]: 1.00E-09 • Kd (Binding Affinity): 3.00E-09 • Bmax: 10 pmol/mg protein • Method: Radioactivity • Measurement: DPM

The target in the next assay is human SERT (Homo sapiens (Human), UniProt P31645). In words: Novascreen Serotonin, Transporter SERT (h) binding, platelets, [3H]Citalopram, N-Methyl.
Sequence of human SERT (P31645 whole entry): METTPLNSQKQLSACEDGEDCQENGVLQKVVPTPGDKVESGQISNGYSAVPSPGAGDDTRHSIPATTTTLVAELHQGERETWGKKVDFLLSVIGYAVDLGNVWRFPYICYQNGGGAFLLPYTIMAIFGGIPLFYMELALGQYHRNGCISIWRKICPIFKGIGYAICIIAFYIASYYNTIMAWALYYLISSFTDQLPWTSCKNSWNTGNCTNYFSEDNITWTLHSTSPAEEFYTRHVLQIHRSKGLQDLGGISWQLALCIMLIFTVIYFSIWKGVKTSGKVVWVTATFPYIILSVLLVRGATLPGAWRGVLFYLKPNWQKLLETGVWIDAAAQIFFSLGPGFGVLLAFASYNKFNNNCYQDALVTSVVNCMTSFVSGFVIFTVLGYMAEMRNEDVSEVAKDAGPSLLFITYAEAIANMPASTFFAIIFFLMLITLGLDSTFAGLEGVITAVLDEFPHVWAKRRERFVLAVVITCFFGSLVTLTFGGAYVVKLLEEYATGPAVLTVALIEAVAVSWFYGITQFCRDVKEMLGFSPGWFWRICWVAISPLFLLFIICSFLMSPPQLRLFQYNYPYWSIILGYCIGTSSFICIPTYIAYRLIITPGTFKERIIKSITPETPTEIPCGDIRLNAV
Description: as §1, §2
For the binding affinity of the compounds of the current disclosure for SERT, the following paramenters are used: • Assay Name: Serotonin, Transporter SERT (h) • Assay Type: Binding • Species: Human • Origin: Platelets • Ligand: [3H]Citalopram, N-Methyl • Ligand [M]: 7.00E-10 • Kd (Binding Affinity): 2.50E-09 • Bmax: 425 fmol/mg protein • Method: Radioactivity • Measurement: DPM

Another assay has as its system naloxone-induced flush. In words: Morphine-dependent rat model of hot flashes (naloxone-induced flush, tail skin temperature). The note with it: 30 mg/kg p.o., FIG. 1. The assay is classed as in vivo. From the text: Morphine-dependent Rat Model: The effectiveness of the compounds of the present disclosure to reduce hot flashes may be evaluated by measuring its ability to reduce morphine-induced rise in TST. Ovariectomized rats may be subcutaneously injected with a vehicle (sterile water) once daily for 8 days. On day-4, two tablets of slow-release morphine may be implanted subcutaneously in the dorsal scapular region of the rats to induce morphine dependence. On day-5 and -6, morphine withdrawal may be induced by subcutaneous administration of 1.0 mg/Kg of naloxone, a general opioid antagonist. […] Ketamine (40 mg/Kg) may be injected after test compound to induce sedation so as to avoid temperature fluctuation due to stress associated with restriction of their movement and attachment of thermistor probe to the their tails. All drug- related effects may be compared to a vehicle control group which also receives ketamine. TST may be monitored continuously for 35 minutes. The average TST measured 25, 30 and 35 minutes prior to naloxone injection may be used to establish a baseline temperature. Hot flash reduction may be determined by evaluating the statistical differences between the baseline temperature and 15 minutes after naloxone treatment when the change in TST may be observed to be maximum.

Entries after “also recorded” stand apart in the source; their conditions may differ.

Sequence of human NET (P23975 whole entry): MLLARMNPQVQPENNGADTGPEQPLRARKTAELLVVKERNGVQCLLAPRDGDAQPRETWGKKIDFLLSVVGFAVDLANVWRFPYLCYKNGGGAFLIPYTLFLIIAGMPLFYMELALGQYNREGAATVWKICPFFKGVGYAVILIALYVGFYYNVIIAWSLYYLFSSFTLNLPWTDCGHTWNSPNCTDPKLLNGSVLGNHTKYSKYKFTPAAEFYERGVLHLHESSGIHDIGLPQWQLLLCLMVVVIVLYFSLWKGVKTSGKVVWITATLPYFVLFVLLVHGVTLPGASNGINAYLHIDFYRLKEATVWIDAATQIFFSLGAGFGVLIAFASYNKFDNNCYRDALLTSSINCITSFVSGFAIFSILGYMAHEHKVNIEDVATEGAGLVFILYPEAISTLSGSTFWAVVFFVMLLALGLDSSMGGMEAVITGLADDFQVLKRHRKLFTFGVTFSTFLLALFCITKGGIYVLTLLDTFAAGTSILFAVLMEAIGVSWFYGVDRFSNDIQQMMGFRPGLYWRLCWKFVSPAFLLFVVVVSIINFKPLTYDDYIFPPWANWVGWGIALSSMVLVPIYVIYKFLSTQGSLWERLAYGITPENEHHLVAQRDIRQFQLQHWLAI

The Ki is a dissociation constant, usually derived from enzyme kinetics or from competition with a known ligand. In the case of `CNCC[C@@H](Oc1cccnc1OCCO)c1ccccc1` [Example 1, (R)-2-(3-(3-(Methylamino)-1-phenylpropoxy)pyridin-2-yloxy)ethanol], on human NET, the Ki worked out at 39 nM.
Turning to `CCNCC[C@@H](Oc1cccnc1OC)c1ccccc1` [Compound 4, (R)-N-ethyl-3-(2-methoxypyridin-3-yloxy)-3-phenylpropan-1-amine], the Ki on human SERT came out at 240 nM; on human NET it was 81.4 nM.
On the same counts, the results for `CCNCC[C@@H](Oc1cccnc1OCC)c1ccccc1` [Compound 5, (R)-3-(2-ethoxypyridin-3-yloxy)-N-ethyl-3-phenylpropan-1-amine] are 579 nM and 37.3 nM.
Regarding `CCOc1ncccc1O[C@H](CCN)c1ccccc1` [Example 2, (R)-3-Phenyl-3-(2-ethoxypyridin-3-yloxy)propan-1-amine], the Ki on human NET amounted to 69 nM.
Consider `CCOc1ncccc1O[C@H](CCNC)c1ccccc1` [Example 3, (R)-3-(2-Ethoxypyridin-3-yloxy)-N-methyl-3-phenylpropan-1-amine], for which the Ki at human SERT was 318 nM; on human NET it was 4.2 nM. Also, in the assay on naloxone-induced flush, the “reduction of naloxone-induced flush” value is given as “effective in reducing naloxone-induced flush; also recorded: effective in reducing naloxone-inducted flush”.
